TGI data for five compounds are collected here from PubChem BioAssay (NCI).

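1) Cells in 96-well plates. 2) Compound, 48 h, 5 concentrations. 3) Linear interpolation between surrounding doses. 4) Unreached endpoint = highest concentration. At the TGI there is no net growth.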 Where only a bound is given, the exact number is not on record here.

Among the test systems are OVCAR-8 ovarian; SN12C renal; SK-MEL-2 melanoma; UO-31 renal; RPMI-8226 leukemia; HCC-2998 colon; EKVX NSCLC; CCRF-CEM leukemia; NCI-H460 lung; U251 CNS; HCT-116 colon; K-562 leukemia; NCI-H522 lung.
Common to all, as to test: DTP human tumour cell line panel, 48 h

By TGI is commonly meant the concentration giving total growth inhibition. A lower TGI goes with greater sensitivity of the cells. `CN(C)CCNc1c(O)c2c(c(O)c1Cl)C(=O)C=CC2=O`: the TGI came out at 3.4 µM in the experiment on OVCAR-8 ovarian; 3.41 µM in the experiment with SN12C renal; 3.95 µM in the experiment on SK-MEL-2 melanoma; 4.75 µM in the experiment on UO-31 renal; 8.14 µM in the experiment on RPMI-8226 leukemia; 3.59 µM in the experiment with HCC-2998 colon. The TGI in the experiment with EKVX NSCLC worked out at 7.69 µM; in the experiment on CCRF-CEM leukemia, 4.72 µM; in the experiment on NCI-H460 lung, 3.63 µM; in the experiment with U251 CNS it was 3.74 µM; in the experiment on HCT-116 colon, 3.32 µM; with K-562 leukemia, 6.66 µM. Moreover, in the experiment on NCI-H522 lung, the TGI worked out at 3.52 µM.

Consider `O=S(=O)(O)c1cc(O)c(N=NC2S(=O)(=O)OCCOS2(=O)=O)c2ccccc12`, for which the TGI with OVCAR-8 ovarian, in the experiment with SN12C renal, in the experiment on SK-MEL-2 melanoma, in the experiment with UO-31 renal, in the experiment on RPMI-8226 leukemia and in the experiment on HCC-2998 colon was greater than 100 µM each time. For the same compound, the TGI in the experiment on EKVX NSCLC, in the experiment with CCRF-CEM leukemia, in the experiment on NCI-H460 lung, in the experiment with U251 CNS, with HCT-116 colon and with K-562 leukemia was greater than 100 µM each time. For the same compound, in the experiment on NCI-H522 lung, the TGI is greater than 100 µM.

In the case of `Fc1ccc(F)c(C=NC23CC4CC(CC(C4)C2)C3)c1`, the TGI in the experiment with OVCAR-8 ovarian, in the experiment on SN12C renal, in the experiment on SK-MEL-2 melanoma, with UO-31 renal, in the experiment with RPMI-8226 leukemia and in the experiment with HCC-2998 colon was greater than 10 µM in each case. The TGI in the experiment with EKVX NSCLC, in the experiment on CCRF-CEM leukemia, with NCI-H460 lung, in the experiment on U251 CNS, in the experiment with HCT-116 colon and in the experiment on K-562 leukemia was greater than 10 µM each time. In the experiment with NCI-H522 lung, this compound came in with a TGI greater than 10 µM.

For the compound `CC1=C[C@H](C[C@]2(C)c3c(c4c(C)cccc4oc3=O)O[C@@H]2C)OC1=O`, the TGI is greater than 100 µM in the experiment on OVCAR-8 ovarian; greater than 100 µM with SN12C renal; greater than 100 µM with SK-MEL-2 melanoma; greater than 100 µM in the experiment on UO-31 renal; 18.1 µM with RPMI-8226 leukemia; greater than 100 µM with HCC-2998 colon. The TGI with EKVX NSCLC was greater than 100 µM; in the experiment on CCRF-CEM leukemia, 74.7 µM; with NCI-H460 lung, greater than 100 µM; with U251 CNS, greater than 100 µM; in the experiment on HCT-116 colon, 30.3 µM; in the experiment on K-562 leukemia, greater than 100 µM. For the same compound, the TGI in the experiment with NCI-H522 lung is 49.6 µM.

For `COc1cc2ncnc(Nc3cccc(Br)c3)c2cc1OC`, the TGI in the experiment on OVCAR-8 ovarian was greater than 35.1 µM; in the experiment on SN12C renal, greater than 52.4 µM; in the experiment on SK-MEL-2 melanoma, 12.9 µM; in the experiment on UO-31 renal it was 33.6 µM; in the experiment with RPMI-8226 leukemia it was greater than 100 µM; in the experiment with HCC-2998 colon it was 10.2 µM. Moreover, the TGI was 31.9 µM with EKVX NSCLC; greater than 89.8 µM in the experiment on CCRF-CEM leukemia; 21.1 µM in the experiment with NCI-H460 lung; greater than 46.7 µM with U251 CNS; 39.3 µM in the experiment on HCT-116 colon; greater than 55.5 µM in the experiment with K-562 leukemia. This compound displayed a TGI with NCI-H522 lung of 11.1 µM.
